System: MraY/MurG enzymes
Assay: Lipid II formation assay (coupled MraY/MurG GlcNAc transferase assay, streptavidin capture)
Format: biochemical, E. coli
Method: Bacterial membranes are used as a source of enzymes in the coupled MraY/MurG assay for the formation of Lipid II. Wild-type E. coli and MurG over-expressing constructs have been utilized as the membrane donors. Bacteria are grown in Brain Heart Infusion media supplemented with Casamino Acids (BHI/CAA) at 37° C. with aeration, to log phase (OD600=0.7) and centrifuged at 7000×g. Pellets are washed once with 50× the wet pellet weight of 5 mM Tris-HCl (pH 8.0). Pellets are resuspended at a concentration of 2 gms wet pellet/35 mls 5 mM Tris for French Press disruption. Cells are pressure treated at 20,000 psi for 1 minute in a prechilled pressure cell. The membranes generated are collected by ultracentrifugation at 200,000×g for 1 hour at 4° C. Membrane pellets are resuspended in approximately the same volume as the wet pellet weight. This generally yields a membrane concentration of roughly 5 mg/ml. Aliquots are made, and membranes frozen at −80° C. until analysis.
Reactions for the formation of Lipid II have been optimized in 1.5 ml Eppendorf tubes. […]
To the Eppendorf tubes containing the reaction mixtures, 500 ul of binding buffer (10 mM Tris-HCl (PH 8.0), 150 mM NaCl, 0.2% Triton X-100) is added. […] The resulting beads are resuspended in buffer, mixed with scintillation cocktail, and counted in a scintillation counter to determine the amount of radioactivity associated with the capture event. […]

Compound | effect on the coupled GlcNAc transferase assay (formation of Lipid II) (FIG. 4) | effect on formation of streptavidin-capturable radiolabeled Lipid II (100 ug/ml)
CC1(C)S[C@@H]2[C@H](NC(=O)[C@H](N)c3ccccc3)C(=O)N2[C@H]1C(=O)O [ampicillin] | no effect | 
moenomycin |  | did not affect
